What was measured:
[1] = tested on: SLC37A2 expression in MCF-7 cells; experiment: SLC37A2 mRNA expression by RT-qPCR in MCF-7 cells; type: cell-based
Experimental: For reverse transcription quantitative polymerase chain reaction (RT-qPCR) assays, 5×10^5 cells/well were plated in six-well dishes, serum starved in modified IMEM for one day before treatment. RNA was extracted using TriPure reagent (Roche, Basel, Switzerland) and cDNA was created using the qScript cDNA SuperMix kit (Quanta Biosciences, Beverly, Mass.). Relative expression levels were determined by qPCR assays performed on a Roche Light-Cycler II using SYBR green master-mix (Roche, Basel, Switzerland). Target gene quantification levels were normalized to the expression of standard housekeeper genes: TBP, ACTB, 18S, and/or GAPDH.
PR cooperation with one or more RUNX factors may be a mechanism for promoter selection by uniquely modified receptors. The family of RUNX transcription factors (RUNX1, 2, and 3) has complex roles in development and tumor formation with both tumor suppressive and tumor-promoting activities. […] From the GSEA results, SLC37A2, a candidate PR target gene containing multiple RUNX2 binding motifs immediately upstream and within the gene, was identified (FIG. 7A). SLC37A2 is a glucose-6-phosphate transporter expressed in monocytes as well as breast and cervical tissues. […] PR/progestin-dependent regulation of SLC37A2 mRNA expression in multiple cell line models was thus measured. […]

[2] = tested on: ERK1/2; experiment: Breast tumor explants, phospho-ERK1/2 IHC; type: cell-based, human; settings: progesterone 10 nM, 2 hours
[3] = tested on: T47D cells; experiment: Mammosphere formation in T47D cells; type: cell-based, human; settings: T47D EV, WT, KR or S294A PR-B; estrogen 1 nM, progesterone 10 nM; 14 days
Experimental: Primary Mammospheres: Adherent cells were washed with PBS and dissociated enzymatically in 0.25% trypsin-EDTA (Invitrogen Corporation, Carlsbad, Calif.). Cells were sieved through a 40-μm sieve (BD FALCON, BD Biosciences, Bedford, Mass.) and analyzed microscopically for single-cellularity. Single cells were plated in ultra-low attachment plates (Corning, Inc., Corning, N.Y.) and cultured in a humid incubator. Cells were grown in a serum-free mammary epithelial basal medium (MEBM; Lonza Group, Basel, Switzerland) containing 1% B27 Supplement (Invitrogen Corporation, Carlsbad, Calif.), 1% penicillin-streptomycin (Invitrogen Corporation, Carlsbad, Calif.), 5 μg/ml insulin (Invitrogen Corporation, Carlsbad, Calif.), 20 ng/ml EGF (Sigma-Aldrich, St. Louis, Mo.), 1 ng/ml hydrocortisone (Sigma-Aldrich, St. Louis, Mo.), and 100 μM β-mercaptoethanol. […] Mammosphere Forming Efficiency (MFE) % was calculated by the number of mammospheres per well/number of cells seeded per well.
Secondary Mammospheres: Primary mammospheres were collected by centrifugation (5 min, 1000 rpm), and dissociated enzymatically in 0.25% typsin-EDTA. Cells were sieved through a 40-μm tip strainer (Bel-Art SP Scienceware, South Wayne, N.J.) and analyzed microscopically for single-cellularity. […] Mammosphere Forming Efficiency (MFE) % was calculated by the number of mammospheres per well/number of cells seeded per well. […]

Row | SMILES | effect on progestin-upregulated SLC37A2 expression ([1]; MCF-7 overexpressing K388R PR, progestin plus mifepristone) | agonist activity on SLC37A2 expression, antiprogestin alone ([1]; cells expressing KR PRs, RU486 treatment alone) | activation of ERK1/2 (phospho-ERK1/2) in tumor explants [2] | total numbers of primary and secondary mammospheres on addition of hormone to culture media [3]
1 | CC#C[C@]1(O)CC[C@H]2[C@@H]3CCC4=CC(=O)CCC4=C3[C@@H](c3ccc(N(C)C)cc3)C[C@@]21C [mifepristone] | blocked | weak partial agonist activity |  | 
2 | CC(=O)[C@H]1CC[C@H]2[C@@H]3CCC4=CC(=O)CC[C@]4(C)[C@H]3CC[C@]12C [progesterone] |  |  | accompanied by activation of ERK1/2 | had no significant effect on total numbers in any condition

— patent US10942183B2, “Methods of detecting progesterone receptor and of detecting an expression level” (REGENTS OF THE UNIVERSITY OF MINNESOTA, priority 2017, dated 2021)
